Publication PMC3543424, “Antitumor Activity of Antimicrobial Peptides Containing CisoDGRC in CD13 Negative Breast Cancer Cells” (PLoS ONE, 2013)
*1 amine or outer side, *2 acyl side, *3 side chain or, on linkers, in order; H or OH if unused. Where a SMILES comes first, the peptide text is derived from it. Bridges are numbered along the chain shown (N, C = ends). [ ]: non-standard residue; d: D form. βAsp = O=C(O)[C@H](CC(=O)[*:2])N[*:1]

Tests used:
MCF-7 cells [1] = experiment: Cell cycle, BrdU/PI flow cytometry; type: cell-based, human; details: MCF-7, 24 h, CDAK 190 µg/ml, CRLK 200 µg/ml
Experimental: (§1) After being incubated with CDAK (190 µg/ml and 212 µg/ml), CRLK (200 µg/ml) and control (PBS) for 24 h, 20 µM BrdU (Sigma-Aldrich, St. Louis, MO, USA) was added to the media for 30 min. Cells were harvested and fixed in iced-cold 75% ethanol for 24 h. Then, the cells were treated with 4N HCL, neutralized by 0.1 M borax, and washed with PBS containing 0.05% bovine serum albumin (BSA). The cells were incubated sequentially with anti-BrdU antibody (santa cruz biotechnology, California, US) and FITC-conjugate anti-mouse secondary antibody in the presence of 0.5%BSA and 0.5%Tween-20. Cells were added PI (50 µg/ml) and RNase A (50 µg/ml) for 20 minutes and analyzed by flow cytometry. Select a forward scatter (FSC) versus side scatter (SSC) window defined single cells and exclude cell doublets.

MDA-MB-231 cells [2] = experiment: Cell cycle, BrdU/PI flow cytometry; type: cell-based, human; details: MDA-MB-231, 24 h, CDAK 212 µg/ml, CRLK 200 µg/ml
Experimental: as §1

MCF-7 cells [3] = experiment: DNA ladder (DNA fragmentation) assay; type: cell-based, human; details: MCF-7, 24 h; CDAK 190 µg/ml, CRLK 200 µg/ml; 1% agarose gel
Experimental: (§2) For DNA fragmentation analysis, DAN of cells which were treated with CDAK (190 µg/ml and 212 µg/ml), CRLK (200 µg/ml) and control (PBS) for 24 h were extracted using a selective apoptotic DNA ladder extraction KIT (Biomed Company, Beijing, China) and were analyzed using 1% agarose gels. DNA was visualized with ethidium bromide staining.

MDA-MB-231 cells [4] = experiment: DNA ladder (DNA fragmentation) assay; type: cell-based, human; details: MDA-MB-231, 24 h; CDAK 212 µg/ml, CRLK 200 µg/ml; 1% agarose gel
Experimental: as §2

MDA-MB-231 xenograft [5] = experiment: MDA-MB-231 xenograft growth in athymic nude mice; type: in vivo, BALB/cnu-nu athymic nude mice; details: 4 mg/kg intravenously, three times a week for three weeks, five mice per group
Experimental: The experiment was approved by the Animal Care and Use Committee of Xi'an Jiaotong University. MDA-MB-231 cells (2×10^6) were injected subcutaneously into the right flank of 6- to 9-week-old female BALB/cnu-nu athymic nude mice (Shanghai Silaike Laboratory Animal Co., Ltd, Shanghai, China) weighing 18 to 20 g. When the tumor reached 60 mm^3 in size, the mice were randomized into three groups: (1) CDAK (4 mg/kg); (2) CRLK (4 mg/kg); and (3) saline (control). They were then injected intravenously (50 µL/injection) three times a week for three weeks. Tumor volume was measured three times a week using calipers to calculate the tumor size using the following formula: length×width^2×0.5. All values are expressed as the mean ± SD.
Tumor-bearing athymic nude mice were sacrificed and the weights of the tumors were recorded. The tumor tissue, liver as well as lung tissues of mice were paraffin-embedded. The tumor paraffin sections were incubated for 10 minutes with 3% H2O2 deionized water to eliminate the endogenous peroxidase activity, washed in PBS three times for five minutes, 5% goat serum was added for 15 minutes, then incubated with mouse monoclonal CD105 antibody (Abcam, Cambridge, UK) at 4°C overnight and washed with PBS three times for five minutes. […]

MDA-MB-231 xenograft [6] = experiment: Tumor angiogenesis, anti-CD105 immunohistochemistry (microvessel density); type: in vivo, BALB/cnu-nu athymic nude mice; details: 4 mg/kg intravenously, tumor sections, P<0.05
Experimental: Tumor-bearing athymic nude mice were sacrificed and the weights of the tumors were recorded. The tumor tissue, liver as well as lung tissues of mice were paraffin-embedded. The tumor paraffin sections were incubated for 10 minutes with 3% H2O2 deionized water to eliminate the endogenous peroxidase activity, washed in PBS three times for five minutes, 5% goat serum was added for 15 minutes, then incubated with mouse monoclonal CD105 antibody (Abcam, Cambridge, UK) at 4°C overnight and washed with PBS three times for five minutes. The biotin-labeled goat anti-mouse IgG were incubated with sections at 37°C for 15 minutes, and then the sections were washed by PBS three times for five minutes. Horseradish peroxidase-avidin enzyme working solution was added at 37°C for 15 minutes and washed with PBS. DAB was added to develop the color, and the nuclei were counterstained mildly with hematoxylin. The liver and lung paraffin sections were stained with hemaetoxylin and eosin (HE) and were independently evluated by two pathologists.

lung and liver = test system: lung and liver; parameters: species or system BALB/cnu-nu athymic nude mice; details: mouse, in vivo, iv, 4 mg/kg
From the text: Terminal deoxynucleotidyl teansferase-mediated dUTP nick end-labeling (TUNEL) were examined in the lung and liver using TdT In Situ Apoptosis Detection Kit (Trevigen, Gaithersburg, Maryland, USA) following the manufacturer's protocols. Apoptosis cells were identified as having brown nuclei under a light microscope. The number of apoptosis cells was counted in five random fields (×400) in a blinded manner.

MCF-7 cells [7] = type: cell-based, human
Experimental: (§3) The MCF-7 and MDA-MB-231 cells were cultured in 96-well plates at a density of 5×10^4 cells/well. CDAK and CRLK were added to different wells, ranging from 10 µg/ml to 200 µg/ml, respectively. After 24 h, 48 h and 72 h, 3-[4,5-dimethylthiazol- 2-yl]-2,5-diphenyltetrazolium bromide (MTT; Sigma-Aldrich, St. Louis, MO, USA) was added to each well and incubated for 4 h. The MTT was dissolved in 200 µL of Dimethyl sulfoxide (DMSO). Absorbance was detected using a microplate reader at 490 nm. Wells without peptides were used to control cell viability, representing 100% cell survival. Wells without cells were used for the blank of the spectrophotometer.

MDA-MB-231 cells [8] = type: cell-based, human
Experimental: as §3

HFF = details: MTT, 24 h
HUVEC = details: MTT, 24 h

Row | Compound | cells in S phase (MCF-7 cells [1]) | cells in S phase (MDA-MB-231 cells [2]) | formation of DNA nucleosome ladder (MCF-7 cells [3]) | formation of DNA nucleosome ladder (MDA-MB-231 cells [4]) | tumor volume compared with control group (MDA-MB-231 xenograft [5]) | inhibition of angiogenesis (microvessel density, anti-CD105) (MDA-MB-231 xenograft [6]) | apoptosis rate (%) in liver (lung and liver) | apoptosis rate (%) in lung (lung and liver) | concentration with significant cytotoxicity (MCF-7 cells [7]) | IC50 (peptide concentration that induces 50% inhibition of cell growth) (MCF-7 cells [7]; MCF-7, MTT, 24 h) | concentration with significant cytotoxicity (MDA-MB-231 cells [8]) | IC50 (peptide concentration that induces 50% inhibition of cell growth) (MDA-MB-231 cells [8]; MDA-MB-231, MTT, 24 h) | IC50 (peptide concentration that induces 50% inhibition of cell growth) (HFF) | IC50 (peptide concentration that induces 50% inhibition of cell growth) (HUVEC)
1 | CRDGCALKAIAKLKLKKLILALK [CRLK] | 19.7% | 23.3% | no DNA ladder was detected | no DNA ladder was detected | did not reach a statistically significance | not | 0.35%±0.23 | 0.17±0.01% | – | – | – | – | – | –
2 | CC[C@H](C)[C@H](NC(=O)[C@H](CC(C)C)NC(=O)[C@H](CC(C)C)NC(=O)[C@@H]1CSSC[C@H](N)C(=O)N[C@H](C(=O)O)CC(=O)NCC(=O)N[C@@H](CCCNC(=N)N)C(=O)N1)C(=O)N[C@H](C(=O)N[C@@H](CCCCN)C(=O)N[C@@H](CC(C)C)C(=O)N[C@@H](C)C(=O)N[C@@H](CCCCN)C(=O)N[C@@H](CC(C)C)C(=O)N[C@@H](C)C(=O)N[C@@H](CCCCN)C(=O)N[C@@H](CCCCN)C(=O)N[C@@H](CC(C)C)C(=O)N[C@@H](C)C(=O)N[C@@H](CCCCN)C(=O)N[C@@H](CC(C)C)C(=O)N[C@@H](C)C(=O)N[C@@H](CCCCN)C(=O)O)[C@@H](C)CC [CDAK] (H-C[βAsp]GRCLLIIKLAKLAKKLAKLAK-OH; disulfide 1-5) | – | – | – | – | – | – | 0.38%±0.14 | 0.16±0.02% | > 40000 ng/mL | 190 µg/mL | > 40000 ng/mL | 212 µg/mL | 912 µg/mL | 861 µg/mL
